Experiment [1] deals with burn injury site on the back of a rat. Put plainly: Rat burn injury healing test with nonwoven fabrics. The experiment is classed as in vivo. The following applies: nonwoven fabric test. Here is the method:
In this animal testing, the nonwoven fabric A or the nonwoven fabric B was applied to a burn injury site on the back of a rat, and the healing effects by the application of the nonwoven fabric A and B were evaluated. The details of the experiment will be described below.
The back of a rat was depilated. In the depilated portion, hot water at 80° C. was brought into contact for 5 seconds to form two burn injury sites. To the burn injury sites, the nonwoven fabric A (about 2 cm×2 cm) and the nonwoven fabric B (about 2 cm×2 cm) were applied, and occlusive patching was performed using non-permeable surgical tape (Blenderm, 3M) and adhesive flexible bandage (Silkytex 3, ALCARE Co., Ltd). On days 3, 6, and 9 after the application of the nonwoven fabrics A and B, the nonwoven fabrics were removed, and the healing effect was evaluated. […]
Two burn injury sites were each formed on 15 rats, and then the nonwoven fabric A and the nonwoven fabric B were applied to each two burn injury sites. […] On day 3, the nonwoven fabrics A and B on the rats of test group A were removed, and the skin conditions were assessed. On day 6, the nonwoven fabrics A and B on the rats of test group B were removed, and the skin conditions were assessed, and on day 9, the nonwoven fabrics A and B on the rats of test group C were removed, and the skin conditions were assessed. […]

Experiment [2] relates to burn injury sites on the backs of rats. The experiment in a line: Rat burn injury healing test with films. The following applies: film test. The experiment is classed as in vivo. Here is the method: The skin conditions of the rats were evaluated according to the following scores (visual inspection).
0: asymptomatic, 1: slight, 2: mild, 3: moderate, 4: crusting, 5: necrosed
The test results were expressed as average values±standard errors and analyzed using EXSUS (Version 8.0, CAC EXICARE Corporation) and SAS (Version 9.3, SAS Institute Japan Ltd). For the scores of the skin conditions, the Wilcoxon test was conducted at a 2-sided significance level of 5%.
In this animal testing, the films 1 to 3 were applied to burn injury sites on the backs of rats, and the healing effects by the application of the films 1 to 3 were evaluated. For comparison, a burn injury site was left untreated, and the development of the untreated site was observed. The details of the experiment will be described below.
The back of a rat was depilated. In the depilated portion, hot water at 80° C. was brought into contact for 5 seconds to form two burn injury sites. […] On days 3, 6, and 9 after the application of the films 1 and 2, the films were removed, and the healing effect was evaluated.
Furthermore, two burn injury sites were formed on the back of another rat in the same manner as described above. […] On days 3, 6, and 9 after the application of the film 3, the film was removed, and the healing effect was evaluated. […]

For the compound `CCCCCCCCCCCCCCCCCC(=O)OCC(O)CO` (centres unmarked) [glycerol alkyl ester, glycerol stearate], the “healing effect on skin having a burn injury (conclusion)” value in experiment [1] and in experiment [2] was “has an external wound-healing effect” throughout.

For the origin of these results see US11058660B2, “External wound-healing agent, and external wound-healing material” (Mitsui Chemicals, Inc., priority 2014, dated 2021).
